Data published in patent publication US8252723B2, “Substituted 1-(3-pyridinyl)pyrazol-4-ylacetic acids, processes for their preparation and their use as herbicides and plant growth regulators” (Bayer CropScience AG, priority 2006, dated 2012).

Each compound was assayed on summer wheat of the cultivar 'Triso' (assay: Plant growth regulation test: culm stabilization of crop plants). Settings: application rate of 30 to 300 g of active substance per hectare, treated at stage BBCH 31, culm length measured after ears had formed.
Type: in vivo
Experimental: With stirring, the compound of the formula (I) in question was, in the form of a water-dispersible powder, together with a surfactant (customary adjuvant at an application rate of 1 l/ha), mixed with water such that a homogenous spray liquor was formed, and applied at an application rate of 300 l of water/ha (converted).
Seeds of summer wheat of the cultivar ‘Triso’ were sown at a depth of 1 cm in plant pots and cultivated outdoors until treatment.
The plants were treated on a laboratory track sprayer with spray liquors of the test substances at macrostage 3 after having reached about 10% of the maximum longitudinal growth typical for the cultivar (stage BBCH 31) and, after the treatment, returned outdoors.
After the ears had formed, the length of the culms were measured. The culm stabilization was evaluated as a percentage of the untreated control.
With `Cc1nn(-c2ccc(Cl)nc2)c(-c2ccccc2)c1CC(=O)O` [Example 1-7] the “longitudinal growth (culm length) of summer wheat” value (from here on “longitudinal growth (culm length)”) was “effectively shortened”. For `COC(=O)Cc1c(C(F)F)nn(-c2cccnc2)c1-c1ccccc1` [Example 2-79], the “longitudinal growth (culm length)” value was “effectively shortened”. For `Cc1ccncc1-n1nc(C)c(CC(=O)O)c1-c1cccc(Cl)c1` [Example 1-21], the “longitudinal growth (culm length)” value was “effectively shortened”. In the case of `Cc1nn(-c2cccnc2)c(-c2ccsc2)c1CC(=O)O` [Example 1-63], the “longitudinal growth (culm length)” value is reported as “effectively shortened”. `COC(=O)Cc1c(C)nn(-c2cccnc2)c1-c1ccc(C(C)(C)C)cc1` [Example 2-122] was tested, and the “longitudinal growth (culm length)” value was “effectively shortened”. In the case of `Cc1nn(-c2cccnc2)c(-c2ccc(Cl)cn2)c1CC(=O)O` [Example 1-110], the “longitudinal growth (culm length)” value is reported as “effectively shortened”. In the case of `C#CCOC(=O)Cc1c(C)nn(-c2cnccc2C)c1-c1ccc(Cl)cc1` [Example 3-75], the “longitudinal growth (culm length)” value is reported as “effectively shortened”. In the case of `Cc1ccncc1-n1nc(C)c(CC(=O)O)c1-c1ccc(F)cc1` [Example 1-37], the “longitudinal growth (culm length)” value is reported as “effectively shortened”. `Cc1ccncc1-n1nc(C)c(CC(=O)OCC2CC2)c1-c1ccc(Cl)cc1` [Example 3-98] was tested, and the “longitudinal growth (culm length)” value was “effectively shortened”. For `Cc1ccncc1-n1nc(C)c(CC(=O)O)c1-c1ccc(Cl)c(Cl)c1` [Example 1-20], the “longitudinal growth (culm length)” value was “effectively shortened”. For `COC(=O)Cc1c(C)nn(-c2cccnc2)c1-c1sccc1C` [Example 2-58], the “longitudinal growth (culm length)” value was “effectively shortened”. `C=C(Cl)COC(=O)Cc1c(C)nn(-c2cccnc2)c1-c1ccc(F)cc1` [Example 3-198] was tested, and the “longitudinal growth (culm length)” value was “effectively shortened”. With `COC(=O)Cc1c(C)nn(-c2cccnc2)c1-c1ccc(Cl)nc1` [Example 2-134] the “longitudinal growth (culm length)” value was “effectively shortened”. `Cc1nn(-c2cccnc2)c(-c2ccc(Cl)cc2)c1CC(=O)OCC1CCCCC1` [Example 3-177] was tested, and the “longitudinal growth (culm length)” value was “effectively shortened”. In the case of `Cc1nn(-c2cnccc2Cl)c(-c2ccccc2)c1CC(=O)O` [Example 1-30], the “longitudinal growth (culm length)” value is reported as “effectively shortened”. With `COc1ccncc1-n1nc(C)c(CC(=O)O)c1-c1ccc(Cl)cc1` [Example 1-35] the “longitudinal growth (culm length)” value was “effectively shortened”. In the case of `COC(=O)Cc1c(C)nn(-c2cccnc2)c1-c1ccc(C)cc1` [Example 2-16], the “longitudinal growth (culm length)” value is reported as “effectively shortened”. With `COC(=O)Cc1c(C)nn(-c2cnccc2C)c1-c1ccc(Cl)cc1` [Example 2-25] the “longitudinal growth (culm length)” value was “effectively shortened”. With `Cc1csc(-c2c(CC(=O)O)c(C)nn2-c2cccnc2)c1` [Example 1-59] the “longitudinal growth (culm length)” value was “effectively shortened”. In the case of `O=C(O)Cc1c(C2CC2)nn(-c2cccnc2)c1-c1ccc(Cl)cc1` [Example 1-146], the “longitudinal growth (culm length)” value is reported as “effectively shortened”. In the case of `COC(=O)Cc1c(C)nn(-c2cncc(C)c2)c1-c1ccccc1` [Example 2-50], the “longitudinal growth (culm length)” value is reported as “effectively shortened”. With `COC(=O)Cc1c(C)nn(-c2cccnc2)c1-c1ccc(Cl)c(C(F)(F)F)c1` [Example 2-47] the “longitudinal growth (culm length)” value was “effectively shortened”. In the case of `C=C(Cl)COC(=O)Cc1c(C)nn(-c2cccnc2)c1-c1ccc(C)s1` [Example 3-191], the “longitudinal growth (culm length)” value is reported as “effectively shortened”. With `Cc1nn(-c2cccnc2)c(-c2ccc(Cl)cc2)c1CC(=O)OC1COC1` [Example 3-232] the “longitudinal growth (culm length)” value was “effectively shortened”. With `Cc1nn(-c2cccnc2)c(-c2ccc(Cl)cc2)c1CC(=O)OCC1CC1` [Example 3-78] the “longitudinal growth (culm length)” value was “effectively shortened”. `Cc1nn(-c2cccnc2)c(-c2ccccn2)c1CC(=O)OC(C)C` [Example 3-48] was tested, and the “longitudinal growth (culm length)” value was “effectively shortened”. `Cc1ccncc1-n1nc(C)c(CC(=O)O)c1-c1ccc(-c2ccccc2)cc1` [Example 1-41] was tested, and the “longitudinal growth (culm length)” value was “effectively shortened”. For `COC(=O)Cc1c(C)nn(-c2cnccc2C)c1-c1ccc(-c2ccccc2)cc1` [Example 2-41], the “longitudinal growth (culm length)” value was “effectively shortened”. `CCCc1nn(-c2cnccc2C)c(-c2ccc(Cl)cc2)c1CC(=O)OC` [Example 2-124] was tested, and the “longitudinal growth (culm length)” value was “effectively shortened”. `COC(=O)Cc1c(C)nn(-c2cccnc2)c1-c1ccc(Cl)c(Cl)c1` [Example 2-27] was tested, and the “longitudinal growth (culm length)” value was “effectively shortened”. For `COC(=O)Cc1c(C)nn(-c2cccnc2)c1-c1ccc(C)cn1` [Example 2-113], the “longitudinal growth (culm length)” value was “effectively shortened”. For `O=C(O)Cc1cnn(-c2cccnc2)c1-c1ccccc1` [Example 1-72], the “longitudinal growth (culm length)” value was “effectively shortened”. `Cc1nn(-c2cccnc2)c(-c2ccccc2Cl)c1CC(=O)O` [Example 1-31] was tested, and the “longitudinal growth (culm length)” value was “effectively shortened”. `COC(=O)Cc1c(C)nn(-c2cnccc2C)c1-c1ccc(Cl)cc1Cl` [Example 2-23] was tested, and the “longitudinal growth (culm length)” value was “effectively shortened”. With `COC(=O)Cc1c(C)nn(-c2cccnc2)c1-c1cccs1` [Example 2-57] the “longitudinal growth (culm length)” value was “effectively shortened”. `COC(=O)Cc1c(C)nn(-c2cccnc2)c1-c1cccnc1` [Example 2-125] was tested, and the “longitudinal growth (culm length)” value was “effectively shortened”. `COC(=O)Cc1c(C)nn(-c2cccnc2)c1-c1ccc(C)s1` [Example 2-61] was tested, and the “longitudinal growth (culm length)” value was “effectively shortened”. For `COC(=O)Cc1c(C)nn(-c2cnccc2C)c1-c1cccc(Br)c1` [Example 2-40], the “longitudinal growth (culm length)” value was “effectively shortened”. In the case of `Cc1ccnc(-c2c(CC(=O)O)c(C)nn2-c2cnccc2C)c1` [Example 1-137], the “longitudinal growth (culm length)” value is reported as “effectively shortened”. For `CC#CCOC(=O)Cc1c(C)nn(-c2cccnc2)c1-c1ccccc1` [Example 3-117], the “longitudinal growth (culm length)” value was “effectively shortened”. With `Cc1ncccc1-n1nc(C)c(CC(=O)O)c1-c1ccccc1` [Example 1-135] the “longitudinal growth (culm length)” value was “effectively shortened”. `COC(=O)Cc1c(C)nn(-c2cnccc2SC)c1-c1ccc(Cl)cc1` [Example 2-45] was tested, and the “longitudinal growth (culm length)” value was “effectively shortened”. With `CC#CCOC(=O)Cc1c(C)nn(-c2cnccc2C)c1-c1ccccc1` [Example 3-139] the “longitudinal growth (culm length)” value was “effectively shortened”. For `C#CCOC(=O)Cc1c(C)nn(-c2cccnc2)c1-c1ccc(Cl)cc1` [Example 3-55], the “longitudinal growth (culm length)” value was “effectively shortened”. With `C=C(Cl)COC(=O)Cc1c(C)nn(-c2cccnc2)c1-c1ccc(C)nc1` [Example 3-195] the “longitudinal growth (culm length)” value was “effectively shortened”. With `COCCOC(=O)Cc1c(C)nn(-c2cccnc2)c1-c1ccc(Cl)cc1` [Example 3-229] the “longitudinal growth (culm length)” value was “effectively shortened”. For `COC(=O)Cc1c(C)nn(-c2cnccc2C)c1-c1cccc(C(F)(F)F)c1` [Example 2-19], the “longitudinal growth (culm length)” value was “effectively shortened”. `COc1ccncc1-n1nc(C)c(CC(=O)O)c1-c1ccccc1` [Example 1-34] was tested, and the “longitudinal growth (culm length)” value was “effectively shortened”. In the case of `CCCc1nn(-c2cccnc2)c(-c2ccc(Cl)cc2)c1CC(=O)OC` [Example 2-89], the “longitudinal growth (culm length)” value is reported as “effectively shortened”. In the case of `Cc1nn(-c2cccnc2)c(-c2ccccn2)c1CC(=O)O` [Example 1-109], the “longitudinal growth (culm length)” value is reported as “effectively shortened”.
